Results taken from PubChem BioAssay (NCI).
Where “and” joins values, the source holds several entries; their conditions need not be identical. Equal values may be shown once.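 In this assay, cells in 96-well plates receive the compound at five concentrations for 48 hours. Endpoints are linearly interpolated between the surrounding concentrations. At the GI50, growth is halved. The concentration for full growth arrest is given as TGI.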

Key:
Assay in all cases: growth of human tumour cells (NCI), 48 h
M19-MEL melanoma = tested on: M19-MEL melanoma
LXFL 529 NSCLC = tested on: LXFL 529 NSCLC
DMS 273 small cell lung = tested on: DMS 273 small cell lung
SNB-78 CNS = tested on: SNB-78 CNS
OVCAR-4 ovarian = tested on: OVCAR-4 ovarian
HOP-18 NSCLC = tested on: HOP-18 NSCLC
KM20L2 colon = tested on: KM20L2 colon
MCF7 breast = tested on: MCF7 breast
PC-3 prostate = tested on: PC-3 prostate
T-47D breast = tested on: T-47D breast
HS 578T breast = tested on: HS 578T breast
BT-549 breast = tested on: BT-549 breast

Row | SMILES | TGI (M19-MEL melanoma) | TGI (LXFL 529 NSCLC) | TGI (DMS 273 small cell lung) | TGI (SNB-78 CNS) | TGI (OVCAR-4 ovarian) | TGI (HOP-18 NSCLC) | TGI (KM20L2 colon) | TGI (MCF7 breast) | TGI (PC-3 prostate) | TGI (T-47D breast) | TGI (HS 578T breast) | TGI (BT-549 breast) | GI50 (M19-MEL melanoma) | GI50 (LXFL 529 NSCLC) | GI50 (OVCAR-4 ovarian)
1 | CN(C)/C=N/c1nc2c(ncn2C2OC(CO)C(O)C2O)c(=O)[nH]1 (centres undefined) | > 100 µM | > 100 µM | > 100 µM | > 100 µM | > 100 µM | > 100 µM | > 100 µM |  |  |  |  |  |  |  | 
2 | O=C(CCn1[nH]c(=O)c(Cl)c(Cl)c1=O)NO | > 100 µM | > 100 µM | > 100 µM |  | > 100 µM | > 100 µM | > 100 µM |  |  |  |  |  |  |  | 
3 | COC1(OC)CC2C(=O)N(Cc3ccccc3)C1C(S(=O)(=O)c1ccccc1)C2S(=O)(=O)c1ccccc1 (centres undefined) | 23.8 µM | 12.1 µM | 27.7 µM | 39.1 µM | 28.6 µM | 31 µM | 31.4 µM |  |  |  |  |  |  |  | 
4 | Cc1cc([N+](=O)[O-])ccc1Nc1cccc(Cl)c1C | 30.6 µM | 28.3 µM | 28.5 µM |  | 31.4 µM | 29.6 µM | 29.8 µM |  |  |  |  |  |  |  | 
5 | CCCN=C(N)NC#N | > 100 µM | > 100 µM | > 100 µM | > 100 µM | > 100 µM | > 100 µM | > 100 µM |  |  |  |  |  |  |  | 
6 | CC1=C(C(=O)Nc2ccccc2)C(c2ccccc2)C(C(=O)Nc2ccccc2)=C(C)N1 | > 100 µM | > 100 µM | > 100 µM | > 100 µM | > 100 µM | > 100 µM | > 100 µM |  |  |  |  |  |  |  | 
7 | CC1=NNC(=O)C2CCC(=O)N12 (centres undefined) | > 100 µM | > 100 µM | > 100 µM | > 100 µM | > 100 µM | > 100 µM | > 100 µM |  |  |  |  |  |  |  | 
8 | CCOC(=O)C1(C#N)C(c2ccccc2)CC(O)(c2ccc(OC)cc2)C(C(=O)c2ccc(OC)cc2)C1c1ccccc1 (centres undefined) | > 100 µM | > 100 µM | > 100 µM | > 100 µM | > 100 µM | > 100 µM | > 100 µM |  |  |  |  |  |  |  | 
9 | O=[N+]([O-])c1ccc(C2=Nn3cnnc3SC2)o1 | 13.8 µM | 26.4 µM | 36.3 µM | 51.9 µM |  |  |  |  |  |  |  |  |  |  | 
10 | COc1cc(C(Cc2ccccc2)NC(C)=O)oc(=O)c1 (centres undefined) | > 100 µM | > 100 µM | > 100 µM |  | > 100 µM |  | > 100 µM |  |  |  |  |  |  |  | 
11 | Cc1cc(CC(O)c2ccc(Cl)c(Cl)c2)nc(=O)[nH]1 (centres undefined) | > 100 µM | 59.2 µM |  | > 100 µM | > 100 µM |  | > 100 µM |  |  |  |  |  |  |  | 
12 | CCOc1ccccc1C=C1c2ccccc2C(=O)c2ccccc21 | > 100 µM | > 100 µM | 15.7 µM | > 100 µM | > 100 µM |  |  |  |  |  |  |  |  |  | 
13 | CC(O)CCC(=O)c1ccoc1 (centres undefined) | > 10000 µM |  | > 9140 µM | 9990 µM | > 7940 µM | > 10000 µM | > 10000 µM | > 10000 µM | > 10000 µM | > 10000 µM | > 10000 µM | > 10000 µM |  |  | 
14 | COC(=O)C(=Cc1cc(OC)ccc1OC)C(=O)OC | 79.5 µM | 36 µM | > 100 µM | > 100 µM | 51.6 µM |  |  |  |  |  |  |  |  |  | 
15 | COc1ccc(C(=O)C(c2ccc(OC)cc2)C2(O)C(=O)Nc3ccc([N+](=O)[O-])cc32)cc1 (centres undefined) | > 100 µM | > 100 µM | > 100 µM | > 100 µM | > 100 µM |  | > 100 µM |  |  |  |  |  |  |  | 
16 | O=c1[nH]c(=O)n(C2OC(CO)C(O)C2O)cc1NN=NCc1ccccc1 (centres undefined) | > 100 µM | > 100 µM | > 100 µM | > 100 µM | > 100 µM | > 100 µM | > 100 µM |  |  |  |  |  |  |  | 
17 | COc1cccc(/C=C/c2cc(OC)c(OC)c(OC)c2)c1 | > 100 µM | > 100 µM | > 100 µM | > 100 µM |  |  | 87.7 µM |  |  |  |  |  |  |  | 
18 | CC(=O)c1cccc(NC(=O)C(=O)NNc2n[nH]c(=S)n2N)c1 | 2.36 µM | 22.5 µM | 18.7 µM | 35 µM | 23.4 µM | 24.2 µM | 46.1 µM | 18.7 µM | 23 µM | 13.6 µM | 7.48 µM | 6.65 µM |  |  | 
19 | CCN(CC)CC1CCCCCCCCCCC1=O (centres undefined) | > 100 µM | > 100 µM | > 100 µM | > 100 µM | > 100 µM |  | > 100 µM |  |  |  |  |  |  |  | 

Row | SMILES | TGI (M19-MEL melanoma) | TGI (LXFL 529 NSCLC) | TGI (DMS 273 small cell lung) | TGI (SNB-78 CNS) | TGI (OVCAR-4 ovarian) | TGI (HOP-18 NSCLC) | TGI (KM20L2 colon) | TGI (MCF7 breast) | TGI (PC-3 prostate) | TGI (T-47D breast) | TGI (HS 578T breast) | TGI (BT-549 breast) | GI50 (M19-MEL melanoma) | GI50 (LXFL 529 NSCLC) | GI50 (OVCAR-4 ovarian)
20 | [N-]=[N+]=NC12CC3C4CC5CC3C(C1)C(C5)C4C2 | > 100 µM | > 100 µM | > 100 µM | > 100 µM | > 100 µM | > 100 µM |  |  |  |  |  |  |  |  | 
21 | CNC(=O)N(C)N=NCCCl | > 100 µM | > 100 µM | > 100 µM |  | > 100 µM |  | > 100 µM | > 100 µM | > 100 µM | > 100 µM | > 100 µM |  |  |  | 
22 | CN(C)c1ccc(C(C=C2c3ccccc3Sc3ccccc32)=C(C#N)C#N)cc1 | > 100 µM | > 100 µM | > 100 µM | > 100 µM | 50.1 µM | > 100 µM | > 100 µM |  |  |  |  |  |  |  | 
23 | COC(=O)c1cc2c(s1)C(=O)c1ccccc1-2 | > 100 µM | > 100 µM | > 100 µM | > 100 µM | > 100 µM | > 100 µM | > 100 µM |  |  |  |  |  |  |  | 
24 | O=c1[nH]c2c(nc1NC13CC4CC(CC(C4)C1)C3)c(=O)oc1ccccc12 | > 100 µM | > 100 µM | > 100 µM |  |  |  | > 100 µM |  |  |  |  |  |  |  | 
25 | S=C1NC2(CCCCCC2)NN1c1ccccc1 |  |  |  |  | > 100 µM | > 100 µM |  | > 100 µM | > 100 µM | > 100 µM | > 100 µM | > 100 µM |  |  | 
26 | CC(C)(C)CC(C)(C)c1cc2c(O)c(c1)Cc1cc(C(C)(C)CC(C)(C)C)cc(c1O)Cc1cc(C(C)(C)CC(C)(C)C)cc(c1O)Cc1cc(C(C)(C)CC(C)(C)C)cc(c1O)C2 | > 100 µM | > 100 µM | > 100 µM | > 100 µM | > 100 µM |  | > 100 µM |  |  |  |  |  |  |  | 
27 | CCCCC(C(=O)C(=O)NC1C2CC3CC(C2)CC1C3)C(=O)C(C)C (centres undefined) | > 100 µM | > 100 µM | > 100 µM | > 100 µM | > 100 µM | > 100 µM | > 100 µM |  |  |  |  |  |  |  | 
28 | S=C(Nc1ccccc1)N(/N=C/C=C/c1ccccc1)c1nnc(-c2ccccc2)c(-c2ccccc2)n1 | > 100 µM |  | > 100 µM | > 100 µM | > 100 µM |  | > 100 µM |  |  |  |  |  |  |  | 
29 | COc1ccc(C2C(Cl)C(=O)N2n2cnc3ccccc3c2=O)cc1 (centres undefined) | > 100 µM | > 100 µM | > 100 µM | > 100 µM | > 100 µM | > 100 µM | > 100 µM |  |  |  |  |  |  |  | 
30 | Cc1ccc(NC(=O)C(=O)C(C(=O)c2ccc3ccccc3c2)C2OC(=O)c3ccccc32)cc1C (centres undefined) | 20.6 µM | 22 µM | 30.3 µM |  | 40.6 µM | 21.7 µM | > 100 µM |  |  |  |  |  |  |  | 
31 | O=C1c2cccc(NCCCNCCO)c2C(=O)c2cccc(NCCCNCCO)c21 | 2.24 µM and 3.72 µM | 2.95 µM and 10.1 µM | 3.98 µM and 5.13 µM | 6.7 µM and 17.1 µM | 2.59 µM and 6.09 µM | 7.69 µM | 6.72 µM and 9.95 µM | 1.41 µM | 5.84 µM | 8.89 µM | 2.65 µM | 4.21 µM | 712 nM and 1800 nM | 844 nM and 2220 nM | 747 nM and 2550 nM
32 | Cn1c2c(c3ccccc31)C1CCCCCCC1C1C(=O)OC(=O)C21 (centres undefined) | > 100 µM | > 100 µM | 42.7 µM | > 100 µM | > 100 µM | > 100 µM |  |  |  |  |  |  |  |  | 
33 | CC1(C)COC(c2cccnc2/C=N/O)=N1 | > 100 µM | > 100 µM | > 100 µM | > 100 µM | > 100 µM | > 100 µM | > 100 µM |  |  |  |  |  |  |  | 
34 | CO/N=C/c1cc(OC)c(OC)c(OC)c1 | > 100 µM | > 100 µM | > 100 µM | > 100 µM | > 100 µM | > 100 µM | > 100 µM |  |  |  |  |  |  |  | 
35 | COc1ccc2c3c([nH]c2c1[N+](=O)[O-])C(C)=NCC3 |  | > 100 µM | > 100 µM | > 100 µM | > 100 µM |  | > 100 µM |  |  |  |  |  |  |  | 
36 | O=C(/C=C/c1ccccc1O)c1ccccc1O | > 100 µM |  | > 100 µM | > 100 µM | > 100 µM |  | > 100 µM |  |  |  |  |  |  |  | 
37 | N#Cc1nc(Nc2cccc3ccccc23)sc1N | > 100 µM | > 100 µM | > 100 µM | 75.6 µM | > 100 µM |  | > 100 µM |  |  |  |  |  |  |  | 
38 | CC(C)N(C(=O)C12C3C4C5(C#N)C3C1(C#N)C5C42I)C(C)C (centres undefined) | > 100 µM | > 100 µM | > 60.9 µM | > 100 µM | > 100 µM | > 100 µM | > 100 µM |  |  |  |  |  |  |  | 
